ChEMBL document CHEMBL1201862, “PubChem BioAssay data set” (2004)
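Cells were grown in 96-well plates and exposed to each compound for 48 hours at five concentrations; endpoints were interpolated linearly between bracketing concentrations, or set to the highest concentration if not reached. Abbreviation: GI50, concentration required for 50% inhibition of growth.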 Activity calls are given as the source filed them. Cut-off read from the data, not from the text of the source: active = GI50 up to about 1.1 µM and inactive = higher.

Tests used:
Assay in all cases: NCI-60 cell line screen, 48 h
Malme-3M = test system: Malme-3M
SF-295 = test system: SF-295
DU-145 = test system: DU-145
NCI-H460 = test system: NCI-H460
M14 = test system: M14
A549 = test system: A549
MDA-MB-435 = test system: MDA-MB-435
HCC 2998 = test system: HCC 2998
HL-60 = test system: HL-60
HOP-62 = test system: HOP-62
SNB-19 = test system: SNB-19
CAKI-1 = test system: CAKI-1
SN12C = test system: SN12C
SW-620 = test system: SW-620
IGROV-1 = test system: IGROV-1
MDA-MB-231 = test system: MDA-MB-231
NCI-H522 = test system: NCI-H522
PC-3 = test system: PC-3
SNB-75 = test system: SNB-75
NCI-H23 = test system: NCI-H23

| SMILES | GI50 (Malme-3M) | GI50 (SF-295) | GI50 (DU-145) | GI50 (NCI-H460) | GI50 (M14) | GI50 (A549) | GI50 (MDA-MB-435) | GI50 (HCC 2998) | GI50 (HL-60) | GI50 (HOP-62) | GI50 (SNB-19) | GI50 (CAKI-1) | GI50 (SN12C) | GI50 (SW-620) | GI50 (IGROV-1) | GI50 (MDA-MB-231) | GI50 (NCI-H522) | GI50 (PC-3) | GI50 (SNB-75) | GI50 (NCI-H23) |
| --- | --- | --- | --- | --- | --- | --- | --- | --- | --- | --- | --- | --- | --- | --- | --- | --- | --- | --- | --- | --- |
| CN1CCN(C2CC(=O)c3c(Cl)sc(Cl)c32)CC1 (centres undefined) | 23.9 µM (inactive) | 21.4 µM (inactive) | 12.6 µM (inactive) | 30.6 µM (inactive) | 6.82 µM (inactive) | 21.3 µM (inactive) | 7.05 µM (inactive) | 8.87 µM (inactive) | 19.9 µM (inactive) | 19 µM (inactive) | 30.7 µM (inactive) | 21.8 µM (inactive) | 13.2 µM (inactive) | 7.94 µM (inactive) | 8.69 µM (inactive) | 20 µM (inactive) | 4.8 µM (inactive) | 29.4 µM (inactive) | 14.7 µM (inactive) | 9.12 µM (inactive) |
| O=C1Nc2cccc(Cl)c2/C1=C\c1c(Cl)nc2sccn12 | 76 µM (inactive) | 28.2 µM (inactive) | 65 µM (inactive) | > 100 µM (inactive) | 50.2 µM (inactive) | > 100 µM (inactive) | > 100 µM (inactive) | > 100 µM (inactive) | > 100 µM (inactive) | 15 µM (inactive) | 17.6 µM (inactive) | 43.2 µM (inactive) | 29.6 µM (inactive) | > 100 µM (inactive) | 28 µM (inactive) | 16.3 µM (inactive) | 50.5 µM (inactive) | 64.4 µM (inactive) | 11.2 µM (inactive) | 21.7 µM (inactive) |
| COC(=O)/C=C\C(C#N)(C#N)/N=C/c1cccc(OC)c1 | 1.71 µM (inactive) | 32.7 µM (inactive) | 14.5 µM (inactive) | 20 µM (inactive) | 4.12 µM (inactive) | 17.9 µM (inactive) | 6.5 µM (inactive) | 16.3 µM (inactive) | > 100 µM (inactive) | > 42.7 µM (inactive) | 23.3 µM (inactive) | 1.92 µM (inactive) | 11.9 µM (inactive) | 2.13 µM (inactive) | 11.7 µM (inactive) | 13.2 µM (inactive) | 1.38 µM (inactive) | 15.8 µM (inactive) | 15.9 µM (inactive) | 6.9 µM (inactive) |
| CN(CCNC(=O)c1n[nH]c2c1Cc1ccccc1-2)CCNC(=O)c1n[nH]c2c1Cc1ccccc1-2 | 19.2 µM (inactive) | 16.6 µM (inactive) | 15.5 µM (inactive) | 18.1 µM (inactive) | 18.7 µM (inactive) | 20.6 µM (inactive) | 17.5 µM (inactive) | 15.4 µM (inactive) | 21.1 µM (inactive) | 14.8 µM (inactive) | 16.8 µM (inactive) | 16.7 µM (inactive) | 16.7 µM (inactive) | 22.1 µM (inactive) | 16.3 µM (inactive) | 19 µM (inactive) | 17.5 µM (inactive) | 17.8 µM (inactive) | 12.5 µM (inactive) | 17.2 µM (inactive) |
| CCCCNc1nc(NC2OCC(OC(C)=O)C(OC(C)=O)C2OC(C)=O)c(N=O)c(=O)n1C (centres undefined) | > 10 µM (inactive) | > 10 µM (inactive) | > 10 µM (inactive) | > 10 µM (inactive) | > 10 µM (inactive) | > 10 µM (inactive) | > 10 µM (inactive) | > 10 µM (inactive) | > 10 µM (inactive) | > 10 µM (inactive) | > 10 µM (inactive) | > 10 µM (inactive) | > 10 µM (inactive) | > 10 µM (inactive) | > 10 µM (inactive) | > 10 µM (inactive) | > 10 µM (inactive) | > 10 µM (inactive) | > 10 µM (inactive) | > 10 µM (inactive) |
| CC1=C(OC2OC(CO)C(O)C(O)C2O)C(=O)C[C@H]2C1=CC[C@@H]1[C@@]2(C)C(=O)C[C@]2(C)[C@@H]([C@@](C)(O)C(=O)CCC(C)(C)O)[C@H](O)C[C@@]12C (some centres undefined) | > 100 µM (inactive) | > 100 µM (inactive) | > 100 µM (inactive) | > 100 µM (inactive) | > 100 µM (inactive) | > 100 µM (inactive) | > 100 µM (inactive) | > 100 µM (inactive) | > 100 µM (inactive) | > 100 µM (inactive) | > 100 µM (inactive) | > 100 µM (inactive) | > 100 µM (inactive) | > 100 µM (inactive) | > 100 µM (inactive) | > 100 µM (inactive) | > 100 µM (inactive) | > 100 µM (inactive) | > 100 µM (inactive) | > 100 µM (inactive) |
| O=[N+]([O-])c1cc(C(F)(F)F)cc2n[se]nc12 | 1.79 µM (inactive) | 12.5 µM (inactive) | 3.21 µM (inactive) | 6.22 µM (inactive) | 1.71 µM (inactive) | 11.4 µM (inactive) | 2.33 µM (inactive) | 3.98 µM (inactive) | 0.429 µM (active) | 15.7 µM (inactive) | 15.5 µM (inactive) | 4.6 µM (inactive) | 4.88 µM (inactive) | 1.45 µM (inactive) | 5.07 µM (inactive) | 2.13 µM (inactive) | 3.13 µM (inactive) | 4 µM (inactive) | 7.64 µM (inactive) | 3.93 µM (inactive) |
| Cc1ccc2nc(Cl)c(/C=N/N3C(=O)/C(=C/Cc4ccco4)N=C3c3ccccc3)cc2c1 | 63.5 µM (inactive) | > 82.8 µM (inactive) | 36.6 µM (inactive) | 26.4 µM (inactive) | 27.7 µM (inactive) | 36.4 µM (inactive) | 2.1 µM (inactive) | 28.6 µM (inactive) | 34.1 µM (inactive) | 62.2 µM (inactive) | 35.8 µM (inactive) | 5.04 µM (inactive) | 26.5 µM (inactive) | 58.1 µM (inactive) | 23.1 µM (inactive) | 67.8 µM (inactive) | 27.4 µM (inactive) | 61.4 µM (inactive) | > 47.4 µM (inactive) | > 49.2 µM (inactive) |
| CC1=NN=C(N)N/C1=C\C(Sc1ccc(Cl)cc1)c1ccc(Cl)cc1Cl (centres undefined) | 13.4 µM (inactive) | 16.9 µM (inactive) | 19.3 µM (inactive) | 8.77 µM (inactive) | 13.6 µM (inactive) | 8.34 µM (inactive) | 18.1 µM (inactive) | 4.67 µM (inactive) | 3.74 µM (inactive) | 23.8 µM (inactive) | 12.4 µM (inactive) | 25.4 µM (inactive) | 24.8 µM (inactive) | 17.2 µM (inactive) | 8.61 µM (inactive) | 21.1 µM (inactive) | 3.79 µM (inactive) | 11.6 µM (inactive) | 13.9 µM (inactive) | 13.1 µM (inactive) |
| C[C@@]12C[C@@H](c3ccccc3O1)N1CCSC1=N2 | > 100 µM (inactive) | > 100 µM (inactive) | > 100 µM (inactive) | > 100 µM (inactive) | > 100 µM (inactive) |  | > 100 µM (inactive) | > 100 µM (inactive) | > 100 µM (inactive) | > 100 µM (inactive) | > 100 µM (inactive) | > 100 µM (inactive) | > 100 µM (inactive) | > 100 µM (inactive) | > 100 µM (inactive) | > 100 µM (inactive) | > 100 µM (inactive) | > 100 µM (inactive) | > 100 µM (inactive) | > 100 µM (inactive) |
